Consider one molecule from patent US8178688B2, “Benzamidine derivatives, process for the preparation thereof and pharmaceutical composition comprising the same” (Dong Wha Pharmaceutical Co., Ltd., priority 2004, dated 2012).

Marks after values point to notes of the source that are not given here.

The subject of test [1] is osteoclast differentiation. The test is described as follows: Inhibitory effects on osteoclast differentiation (co-culture of bone marrow cells with osteoblast, TRAP staining). The class given is cell-based, mice. To be noted: Mus musculus, Osteoclast, 168 h; 1 m; co-culture of bone marrow cells and osteoblast, 7 days, TRAP-positive osteoclasts versus controls; read-out: % inhibitory activity on osteoclastogenesis. In outline: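 Percent inhibition versus control is based on microscope counts of TRAP-positive osteoclasts (3 or more nuclei) after 7 days of compound exposure. Cultures paired ddY mouse marrow cells with ICR calvarial osteoblasts, driven by dexamethasone 10^−7M plus vitamin D3 10^−8M, with medium and compound changed every 2–3 days.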

Test [2] relates to rat models subjected to rib fracture. The test is described as follows: Effect of promoting fracture healing in rib fracture-induced rat model (callus volume, callus osteoid volume). It counts as in vivo, SD rats. As for the experimental part: The benzamidine compounds were assayed for therapeutic effect on bone fracture in rat models subjected to rib fracture. Benzamidine derivates are dosed from 2 days after operation for 2 weeks, and the changes on the volume and histology of callus were observed.
A total of 54 SD rats (8 weeks old upon receipt, Jung Ang Lab. Animal Co., Korea) were used. While being housed at a density of three to a plastic cage, the experimental animals were kept in a breeding room under controlled temperature (20-25° C.) and humidity (30-35%). Under light-dark cycles of 12 hours, the rats were allowed to have free access to feedstuff and tap water.
200 mg of benzamidine compounds (Methansulfonic acid or Hydrochloride) were completely dissolved in 5 ml of sterilized distilled water. The benzamidine derivatives in the solutions was orally administered at doses of 200 mg per kg of body weight once a day for 2 weeks from day 2 of the surgery.
8th and 9th rib of each animal was exposed by general operation under ketamine HCl and xylazine HCl anesthesia, and the exposed ribs were crossly dissected using surgical scissors. After rib-fracture, surgical wounds were closed with general skin suture.
8th and 9th ribs of each animal were separated at sacrifice and then the long axis and short axis of callus were calculated as mm units. The volume of callus was calculated as following Equation 2. Callus volume(mm^3)=(a×b^2)/2 Equation 2 • a: long diameter of bony callus • b: short diameter of bony callus
The 8th rib including fracture sites of each rat was separated and fixed in 10% neutral buffered formalin, and then decalcified in decalcifying solution (24.4% formic acid, and 0.5N sodium hydroxide) for 5 days (mixed decalcifying solution was exchanges once a day for 5 days). After decalcification, the rib was embedded in paraffin, sectioned (3˜4 μm) and stained with hematoxylin-eosin or Masson's trichrome for composition of callus observation.
Osteloid volume (OV/callus) in callus regions of prepared histological specimens were detected as % levels using automated image analysis (analySIS Image Processing; SIS, Germany) under microscopy.

The test system of test [3] is mouse models of ovalbumin-induced asthma. The test is described as follows: Therapeutic effect in mouse model of asthma induced with ovalbumin (lung weight, total leukocytes in blood and BALF). It counts as in vivo, C57BL/6 mice. As for the experimental part: The benzamidine compounds were assated for therapeutic effect on allergic inflammation in mouse models of ovalbumin-induced asthma. Starting on the day of immunization the benzamidine compounds were dosed for 17 consecutive days. The experimental animals were re-exposed to ovalbumin 14 days after the sensitization and then sacrificed 3 days after the re-exposure. Changes in lung weight, cellular components of peripheral blood and bronchoalveolar lavage fluid, and lung histopathology were observed.
A total of 110 female C57BL/6 mice (7-week-old, SLC, Japan) were adapted to a laboratory environment for 6 days before being used in earnest experiments. While being housed at a densirt of five in a plastic cage, the experimental animals were breed in a breeding room with controlled temperature (20-25° C.) and humidity (30-35%). Under light-dark cycles of 12 hours, mice were allowed to have free access to feedstuff and tap water. While asthma was induced in 100 mice by ovalbumin, 10 mice were used as a non-treated group.
200 mg of benzamidine compounds (Methansulfonic acid or Hydrochloride) were completely dissolved in 5 ml of sterilized distilled water. The benzamidine compound in the solutions was orally administered at doses of 200 mg per kg of body weight once a day from the day of the sensitization with ovalbumin. The control group was administered with equal volumes of sterilized distilled water in the same manner.
A solution of 200 μg of ovalbumin (Grade VI; Sigma, st. Louis, Mo., USA) and 180 mg of aluminium hydroxide (Al(OH)3, dried powder gel; Aldrich, Milwaukee, USA) in 4 ml of physiological saline was allowed to stand at 4° C. overnight and was administered to the experimental animals (200 μl, abdominal injection) for sensitization. As for the non-treated group, a solution of only aluminium hydroxide in saline was injected. 15 days after sensitization, a 1.5% ovalbumin solution was sprayed in air using a nebulizer, followed by exposing the experimental animals to the spray for 10 min to induce asthma therein. The non-treated group was exposed only to saline in the same manner. All the experimental animals were sacrificed 3 days after the exposure.
On the final day of experiment, the lungs were separated form adjacent organs. The removed lungs were weight among individual animals, the relative weight of the lungs was calculated as a percentage of body weight using the following Equation 3. Relative weight of Lung(%)=(Absolute lung weight/Body weight)×100 Equation 3
On the final day of experiment, all the experimental animals were etherized and underwent laparotomy to expose the abdominal vena cava, from which 1 ml of blood was the taken. Using a hemocytometer, a blood sample was measured for total leukocyte counts in a ×10^3/1 mm^3 units.
On the final day of experiment, secretions present in bronchi and alveola were examined for cyrological constitution. After veing etherized, the experimental animals were operated to open the cervical region and the thorax. The jugular vein was allowed to bleed, followed by endotracheal intubation. 3 ml of phosphate buffered saline was injected twice through the tube and the thorax was massaged for 30 sec to obtain cell suspension from the lungs. Using a hemocytometer, a […] was measured for total leukocyte counts in a ×10^5/1 ml units.

Consider `CNc1nc(-c2ccc(OCCCCCOc3ccc(C(=N)NO)cc3)cc2)c(CCCl)s1` [Example 115, N-hydroxy-4-(5-[4-(5-(2-chloroethyl)-2-methylamino-1,3-thiazol-4-yl)phenoxy]pentoxy)-benzamidine], for which, in test [1], the inhibition at 1 µM worked out at 96%. The “Changes on callus volume (mm^3)” value in test [2] (200 mg/kg oral once a day for 2 weeks from day 2 of surgery, 8th and 9th ribs, vehicle control 37.22 ± 8.23) is on record as 24.06 ± 9.64* mm^3. For the same molecule, the “Changes on callus osteoid volume (OV/callus, %)” value in test [2] (200 mg/kg oral once a day for 2 weeks, 8th rib, vehicle control 35.88 ± 5.06) stood at 41.94 ± 6.33%. Further, the “Changes on the lung weight, Absolute” value in test [3] (200 mg/kg oral once a day from sensitization, vehicle control 0.134 ± 0.012, sham 0.110 ± 0.009) stood at 0.114 ± 0.009 g. Besides, the “Changes on the lung weight, Relative (%)” value in test [3] (200 mg/kg oral once a day, % of body weight, vehicle control 0.780 ± 0.103, sham 0.694 ± 0.049) was determined as 0.705 ± 0.046%.
